Read-outs that look alike come from different tables or passages of the source.
Key:
[1] = system: TR146 oral mucosa in vitro model; assay: High-throughput (96.96) qPCR chip, mRNA expression after inflammation studies; format: cell-based, human; conditions: 48 h, normalised to control; mean ± SD
Method: ThinCerts® were seeded with cells as described above. […] Three days before the experiments, cell layers and blanks were washed twice on the basolateral compartment with 900 µL cultivation media (DMEM supplemented with 10% Fetal Calf Serum and 1% Penicillin/Streptomycin) to remove anti-inflammatory hydrocortisone residues (a component of media supplement HKGS) and were further cultivated in cultivation media.
Prior to treating cells with prepared DMEM solutions, TEER was measured in cultivation media DMEM supplemented with 1% Penicillin/Streptomycin and 10% Fetal Calf Serum. Subsequently, cell layers and blanks were washed with DMEM (without supplements) twice on the apical and basolateral compartment, followed by TEER measurements in DMEM. Media of cells were replaced with previously prepared DMEM solutions. Control media was applied on the blanks. […] Subsequently, 10 µM carboxyfluorescein was added to the apical DMEM solutions and incubated in the incubator at 37 °C for 2 h. Media were immediately collected and measured for the RFU content using the EnSpire as described above. Afterwards, media were stored at −20 °C until further usage. Two cell-grown ThinCerts^TM of each treatment were pooled as one sample with 350 µL lysis buffer supplemented with 1% ß-mercaptoethanol and stored at −80 °C for RNA isolation.
In short, RNA samples collected at the 48-hour timepoint of the inflammation studies and generated by pooling two cell-grown inserts were tested as duplicates on the expression of 95 markers and 1 negative control (H2O). The mRNA samples were amplified with three different primer pools containing 54 primers (PPIA, ACTB, GAPDH, B2M, CLDN1, CLDN2, CLDN3, CLDN4, CLDN5, CLDN6, CLDN7, CLDN8, CLDN9, CLDN10tva, […]
MARVELD2, ZO-1, ZO-2, ZO-3, SLC2A1, SLC7A1, SLC7A5, SLC16A1, ABCB1, ABCC1, ABCC2, ABCC3, ABCC4, ABCC5, ABCG2, INSR, LRP1, TFRC, VEGF-A, CDH5, VWF), 32 primers (CK1, CK4, […]
Quality control of generated data excluded Ct measured outside of the marker’s melting temperature ± 1.5 °C. To calculate the relative expression for each marker, the relative quantitative value was first calculated by subtracting the mean Ct values of control samples from the Ct values of treated samples and potentiating the resulting ΔCt by the power of 2 (=2ΔCt). The geometric mean of housekeeping genes […]
the relative quantitative value of each marker was divided by the calculated geometric mean of housekeeping genes of the respective sample. Subsequent expression values of treated samples were […]
Tested RNA samples were collected after three independent experiments with 4 treatment groups (Control, INF, INF+Ibu, Ibu) per experiment (N=12). Statistical analysis was performed as two-way ANOVA with post hoc Holm–Sidak test with *p<0.05, **p<0.01, ***p<0.001 and […]

[2] = system: COX-1 and COX-2 protein in TR146 cells; assay: Western blot for COX-1 and COX-2 after inflammation study; format: cell-based, human; conditions: 48 h treatment
[3] = system: TR146 cell layers; assay: TEER after 48 h inflammation study; format: cell-based, human; conditions: 48 h treatment; ibuprofen 100 µM; cytokines 100 ng/mL each
[4] = after oral administration of 200 mg ref 52, 53; cited from earlier work
[5] = CXlogD at pH 7.4 ref https://ebi.ac.uk (02.04.2024); cited from earlier work
[6] = system: TR146 cell layers
[7] = in vitro; conditions: human, not told, permeability coefficient, without probenecid

## CC(C)Cc1ccc(C(C)C(=O)O)cc1 (stereo not shown) [ibuprofen]
[1]
  ABCB1 mRNA expression: 1.01± 0.04 n-fold
  ABCC1 mRNA expression: 1.26± 0.46 n-fold
  ABCC2 mRNA expression: 0.7± 0.65 n-fold
  ABCC3 mRNA expression: 0.97± 1.21 n-fold
  ABCC4 mRNA expression: 1.46± 0.5 n-fold
  ABCC5 mRNA expression: 0.69± 0.34 n-fold
  ABCG2 mRNA expression: 0.87± 1.23 n-fold
  AMY mRNA expression: 0.38± 0.43 n-fold
  AQP1 mRNA expression: 0.34± 0.19 n-fold
  AQP3 mRNA expression: 0.76± 0.67 n-fold
  AQP5 mRNA expression: 1.57± 1.16 n-fold
  AQP9 mRNA expression: 0.93± 0.04 n-fold
  AQP10 mRNA expression: 1.38± 0.72 n-fold
  AQP11 mRNA expression: 0.66 ± 0.07 n-fold
  CDH1 mRNA expression: 0.93± 0.62 n-fold
  CK1 mRNA expression: 11.98± 16.81 n-fold
  CK4 mRNA expression: 1.53± 1.73 n-fold
  CK5 mRNA expression: 0.27± 0.28 n-fold
  CK7 mRNA expression: 3.07± 2.11 n-fold
  CK8 mRNA expression: 0.92± 0.68 n-fold
  CK10 mRNA expression: 1.63± 2.38 n-fold
  CK13tv1 mRNA expression: 1.34± 0.93 n-fold
  CK14 mRNA expression: 1.53± 0.93 n-fold
  CK18 mRNA expression: 0.79± 0.85 n-fold
  CK19 mRNA expression: 1.53± 0.26 n-fold
  CLDN1 mRNA expression: 0.52± 0.71 n-fold
  CLDN2 mRNA expression: 5.02 n-fold
  CLDN3 mRNA expression: 1.95 n-fold
  CLDN4 mRNA expression: 0.74± 1.1 n-fold
  CLDN5 mRNA expression: 7.17± 10.76 n-fold
  CLDN6 mRNA expression: 1.83± 0.78 n-fold
  CLDN7 mRNA expression: 0.51± 0.72 n-fold
  CLDN8 mRNA expression: 0.49± 0.46 n-fold
  CLDN9 mRNA expression: 1.07± 1.46 n-fold
  CLDN10tva mRNA expression: 1.49± 2.21 n-fold
  CLDN11 mRNA expression: 0.6± 0.1 n-fold
  CLDN12tv1 mRNA expression: 0.73± 0.3 n-fold
  CLDN12tv2 mRNA expression: 0.47± 0.35 n-fold
  CLDN12tv3 mRNA expression: 0.79± 0.25 n-fold
  CLDN14 mRNA expression: 1.51 n-fold
  CLDN15 mRNA expression: 0.98± 0.96 n-fold
  CLDN16 mRNA expression: 1.79± 1.1 n-fold
  CLDN17 mRNA expression: 1.66± 1.15 n-fold
  CLDN18tv2a mRNA expression: 6.08± 8.62 n-fold
  CLDN21 mRNA expression: 1.29 n-fold
  CLDN22 mRNA expression: 0.4± 0.53 n-fold
  CLDN24 mRNA expression: 0.62 n-fold
  CLDN25tv1-4 mRNA expression: 0.65± 0.77 n-fold
  CLDN25tv7 mRNA expression: 1.34± 0.38 n-fold
  CLDN27 mRNA expression: 0.26 n-fold
  DSG3 mRNA expression: 0.83± 0.85 n-fold
  INSR mRNA expression: 0.52± 0.39 n-fold
  JAM1 mRNA expression: 0.5± 0.67 n-fold
  JAM2 mRNA expression: 0.55 n-fold
  LOR mRNA expression: 2.69± 2.89 n-fold
  LRP1 mRNA expression: 0.68± 0.36 n-fold
  MARVELD2 mRNA expression: 2.92± 1.97 n-fold
  MFSD2A mRNA expression: 0.85± 0.6 n-fold
  MUC1A mRNA expression: 0.53± 0.42 n-fold
  MUC1B mRNA expression: 0.81± 0.36 n-fold
  MUC3A mRNA expression: 2.34± 2.52 n-fold
  MUC5AC mRNA expression: 0.76± 0.17 n-fold
  MUC15tv2 mRNA expression: 0.46± 0.21 n-fold
  MUC18 mRNA expression: 0.89± 0.56 n-fold
  MUC20 mRNA expression: 1.43± 0.61 n-fold
  OCLN mRNA expression: 1.16± 1.05 n-fold
  PECAM1 mRNA expression: 0.77 n-fold
  SLC2A1 mRNA expression: 0.4± 0.26 n-fold
  SLC7A1 mRNA expression: 0.54± 0.49 n-fold
  SLC7A5 mRNA expression: 0.56± 0.91 n-fold
  SLC16A1 mRNA expression: 0.32± 0.48 n-fold
  TFRC mRNA expression: 0.79± 0.87 n-fold
  VEGF-A mRNA expression: 0.5± 0.27 n-fold
  VIM mRNA expression: 0.56± 0.52 n-fold
  VWF mRNA expression: 1.28 n-fold
  ZO-1 mRNA expression: 0.91± 0.81 n-fold
  ZO-2 mRNA expression: 1.26± 0.5 n-fold
  ZO-3 mRNA expression: 0.51± 0.84 n-fold
[2]
  COX-2 protein expression: no up-regulation of COX-2
[3]
  TEER values after 48 h: 69.65 ± 9.10 Ω × cm^2
[4]
  plasma concentration: 116 to 142.5 µM
[5]
  XlogD: 1.34
[6]; cells treated with cytokines
  regulation of permeability with or without probenecid: no distinct regulation
[6]; cells treated with ibuprofen previously
  higher permeability by addition of probenecid: 52.64%
[6]; control group
  higher permeability by addition of probenecid: 42.46%
[7]; cell layers pre-treated with cytokines 48 h, 4 h transport
  Papp A→B at 4 h: 33.4 ×10⁻⁶ cm/s
[7]; cell layers pre-treated with cytokines plus ibuprofen 48 h, 4 h transport
  Papp A→B at 4 h: 35.1 ×10⁻⁶ cm/s
[7]; control cell layers, 4 h transport after 48 h
  Papp A→B at 4 h: 24 ×10⁻⁶ cm/s
